In patent US20200078379A1, “DEFEROXAMINE DERIVATIVES AS MEDICAMENTS” (BIOTECHNOLOGICKY USTAV AV CR, V.V.I., priority 2017, published 2020):

What was measured:
MCF7 cells [1] = test: individual cell movement, Juli FL and Image J; format: cell-based, human
Experimental: Additionally, cells seeded identically as in example 26, were treated with 1 to 5 μM concentrations of compound 2 and movie was recorded via the Juli FL system, enabling monitoring of individual movement of cells. The movement was then analyzed by the Image J program to gain the average travelled distance within a specified time. We detected a significant reduction of the total length of travelled trajectory when cells were exposed to compound 2 (Table 12)

MDA-MB-231 cells [2] = test: cellular proliferation, continuous confluence monitoring via Juli FL; format: cell-based, human; details: for Final confluence: MDA-MB-231, 48 hrs
Experimental: (§1) We also tested the ability of compound 2 to suppress proliferation of cancer cells by an alternative approach via the real time monitoring with a cellular analyser Juli FL. In brief, MCF7 or MDA-MB-231 cells were seeded in a 6-well plate the day before to reach approximately 20% confluence on the following day. Next day, the camera of the instrument was focused on a particular field with approximately 20% confluence and cells were continuously monitored, recording the confluence and visual appearance every 30 minutes for 48 hrs. Values were then expressed either as simple confluence at the end of the experiment or as slope of the line representing the confluence during a given period of time (Table 10). It is clear from the collected data that, in agreement with Xcelligence data, we do see inhibition of proliferation at 1 μM, complete block of proliferation at 2 μM and a cytotoxic effect at 5 μM. The effect is less pronounced in this case as dead cells remain in the monitored field and some are still counted as living cells by the software.

MCF7 cells [3] = test: as above; format: cell-based, human; details: for Final confluence: MCF7, 48 hrs
Experimental: as §1

MCF7 cells [4] = test: cellular proliferation in real time, Xcelligence technology; format: cell-based
Experimental: The ability of compound 2 to affect the proliferation and cell death induction in real time was monitored by the Xcelligence technology that detects changes in electrical impedance related to the cell number. In brief, special 16-well e-plates containing gold electrodes were filled with medium, blank values were recorded, and then 5.000 cells per well were seeded in the plate and let to attach for 2 hours, followed by the addition of compounds. The electrical impedance was then monitored over time in real-time every 15 minutes. In this case a line is drawn that reflects the cell number over time. […] We have seen a clear inhibition of proliferation with compound 2 at 1 μM, complete block of proliferation at 2 μM concentration, while the cytotoxic effect is seen at 5 μM (Table 9).

SK-OV-3 cells = test: crystal violet assay, cellular viability; format: cell-based; details: Homo sapiens, SK-OV-3, 48 hours
MDA-MB-231 cells [5] = test: cellular migration into scratch, JULI FL; format: cell-based, human
Experimental: (§2) In order to test the effect of compound 2 on cellular migration, we have seeded MCF7 or MDA-MB-231 cells in 12 well plates, let them reach confluence and then introduced a scratch in the monolayer with a 10 μl pipette tip.

MCF7 cells [6] = test: cellular migration into scratch, JULI FL; format: cell-based, human
Experimental: as §2

[7] = system: non malignant cells (BJ), human fibroblast; test: crystal violet assay, cellular viability; format: cell-based
Experimental: (§3) Compound 1 and compound 2 were tested in their efficacy to kill malignant MCF7 cancer cells. Briefly, 10.000 cells per well were seeded in a 96-well plat on one day and the next day selected compounds were added and incubated with the cells for 48 hrs. The cells were then fixed with 4% paraformaldehyde, stained with 0.05% crystal violet, washed with PBS, and solubilized in 1% SDS. The absorbance of the plate at 595 nm was then measured, quantifying the number of viable cells.
(§4) A number of compounds of the present invention were tested for cytotoxicity towards at least some of human breast cancer cell lines (MCF7, MDA-MB-231), human fibroblast (BJ) and murine triple negative breast cancer cell line 4T1 (Table 2).

[8] = system: murine triple negative breast cancer cell line 4T1; test: crystal violet assay, cellular viability; format: cell-based; details: Mus musculus, 4T1, 48 hours
Experimental: as §3, §4

[9] = system: murine triple negative breast cancer cells line 4T1; test: tumor growth in vivo, 4T1 model; parameters: species or system Balb/c gamma mice; details: for Relative tumor size: 4T1, 8 mg/kg i.p. twice per week
Experimental: In order to define the effect of compound 2 on tumor growth and progression in vivo, we tested its effect on the model of syngeneic murine triple negative breast cancer cells line 4T1, Balb/c gamma mice being the […] host. Mice were injected with 1 million of cells s.c. on the right flank. After appearance of tumors (15-60 mm^3) mice were randomized into two separate group, one receiving corn oil (control) and one receiving compound 2 at 8 mg/kg. Tumor progression was then monitored by ultrasound imaging Vevo770 and mice received the treatment twice per week, i.p. in approximately 100 ul of corn oil.

In the case of `CC(=O)N(O)CCCCCNC(=O)CCC(=O)N(O)CCCCCNC(=O)CCC(=O)N(O)CCCCCN(CCCCCCCCCC[P+](c1ccccc1)(c1ccccc1)c1ccccc1)CCCCCCCCCC[P+](c1ccccc1)(c1ccccc1)c1ccccc1.[Cl-].[Cl-]` [Compound 2, Triphenyl(3,14,25-trihydroxy-2,10,13,21,24-pentaoxo-31-(10-(triphenylphosphonio)decyl)-3,9,14,20,25,31-hexaazahentetracontan-41-yl)phosphonium chloride], the “speed of the movement” value (MCF7 cells [1]; MCF7, 1 μM) is reported as 0.16 (0.06) μm*min^−1, the “travelled distance of an individual cell between frames” value (“travelled distance” for short) (MCF7 cells [1]; MCF7, 1 μM) is reported as 4.4 (1.4) μm and the “speed of the movement” value (MCF7 cells [1]; MCF7, 2 μM) is reported as 0.13 (0.05) μm*min^−1. For the same compound, the “travelled distance” value (MCF7 cells [1]; MCF7, 2 μM) was 3.9 (1.5) μm, the “speed of the movement” value (MCF7 cells [1]; MCF7, 5 μM) was 0.12 (0.07) μm*min^−1 and the “travelled distance” value (MCF7 cells [1]; MCF7, 5 μM) was 3.1 (0.7) μm. The “slope of the confluence line” value (MDA-MB-231 cells [2]; MDA-MB-231, 0-22 h, 1 μM) was 0.786 (0.010), the “slope of the confluence line” value (MDA-MB-231 cells [2]; MDA-MB-231, 0-22 h, 2 μM) was 0.470 (0.006) and the “slope of the confluence line” value (MDA-MB-231 cells [2]; MDA-MB-231, 0-22 h, 5 μM) was 0.454 (0.014). For the same compound, the “slope of the confluence line” value (MDA-MB-231 cells [2]; MDA-MB-231, 22-48 h, 1 μM) was 0.934 (0.014), the “slope of the confluence line” value (MDA-MB-231 cells [2]; MDA-MB-231, 22-48 h, 2 μM) was 0.114 (0.011) and the “slope of the confluence line” value (MDA-MB-231 cells [2]; MDA-MB-231, 22-48 h, 5 μM) was −0.057 (0.013). For the same compound, the Final confluence (MDA-MB-231 cells [2]; 1 μM) was 65.15 (3.3), the Final confluence (MDA-MB-231 cells [2]; 2 μM) was 46.58 (2.7) and the Final confluence (MDA-MB-231 cells [2]; 5 μM) was 25.87 (2.4). For the same compound, the “slope of the confluence line” value (MCF7 cells [3]; MCF7, 0-22 h, 1 μM) was 0.655 (0.022), the “slope of the confluence line” value (MCF7 cells [3]; MCF7, 0-22 h, 2 μM) was 0.324 (0.016) and the “slope of the confluence line” value (MCF7 cells [3]; MCF7, 0-22 h, 5 μM) was 0.317 (0.030). The “slope of the confluence line” value (MCF7 cells [3]; MCF7, 22-48 h, 1 μM) was 0.510 (0.014), the “slope of the confluence line” value (MCF7 cells [3]; MCF7, 22-48 h, 2 μM) was 0.104 (0.007) and the “slope of the confluence line” value (MCF7 cells [3]; MCF7, 22-48 h, 5 μM) was −0.076 (0.010). The Final confluence (MCF7 cells [3]; 1 μM) was 53.15 (4.0), the Final confluence (MCF7 cells [3]; 2 μM) was 32.94 (2.5) and the Final confluence (MCF7 cells [3]; 5 μM) was 26.54 (1.9). The “slope of the line (relative number of cells in relation to time)” value (MCF7 cells [4]; MCF7, 0-15 h, 1 μM) was 0.32, the “slope of the line (relative number of cells in relation to time)” value (MCF7 cells [4]; MCF7, 0-15 h, 2 μM) was 0.40 and the “slope of the line (relative number of cells in relation to time)” value (MCF7 cells [4]; MCF7, 0-15 h, 5 μM) was 0.31. For the same compound, the “slope of the line (relative number of cells in relation to time)” value (MCF7 cells [4]; MCF7, 0-36 h, 1 μM) was 0.35, the “slope of the line (relative number of cells in relation to time)” value (MCF7 cells [4]; MCF7, 0-36 h, 2 μM) was −0.01 and the “slope of the line (relative number of cells in relation to time)” value (MCF7 cells [4]; MCF7, 0-36 h, 5 μM) was −0.47. The “concentration at which the cytotoxic effect is seen” value (MCF7 cells [4]; Xcelligence, MCF7) was 5 µM, the “concentration with clear inhibition of proliferation” value (MCF7 cells [4]; Xcelligence, MCF7) was 1 µM and the “concentration with complete block of proliferation” value (MCF7 cells [4]; Xcelligence, MCF7) was 2 µM. For the same compound, the IC50 (SK-OV-3 cells) was 5.1 µM, the “mean percentage of non-invaded portion of the scratch” value (MDA-MB-231 cells [5]; MDA-MB-231, 0 h, 1 μM) was 100 (5.5) % and the “mean percentage of non-invaded portion of the scratch” value (MDA-MB-231 cells [5]; MDA-MB-231, 0 h, 2 μM) was 100 (7.4) %. For the same compound, the “mean percentage of non-invaded portion of the scratch” value (MDA-MB-231 cells [5]; MDA-MB-231, 0 h, 5 μM) was 100 (6.5) %, the “mean percentage of non-invaded portion of the scratch” value (MDA-MB-231 cells [5]; MDA-MB-231, 24 h, 1 μM) was 40.7 (8.9) % and the “mean percentage of non-invaded portion of the scratch” value (MDA-MB-231 cells [5]; MDA-MB-231, 24 h, 2 μM) was 42.7 (8.0) %. The “mean percentage of non-invaded portion of the scratch” value (MDA-MB-231 cells [5]; MDA-MB-231, 24 h, 5 μM) was 48.4 (8.9) %, the “mean percentage of non-invaded portion of the scratch” value (MDA-MB-231 cells [5]; MDA-MB-231, 48 h, 1 μM, cells started to die at 48 hrs) was 61.7 (6.7) % and the “mean percentage of non-invaded portion of the scratch” value (MDA-MB-231 cells [5]; MDA-MB-231, 48 h, 2 μM, cells started to die at 48 hrs) was 76.2 (13.3) %. The “mean percentage of non-invaded portion of the scratch” value (MDA-MB-231 cells [5]; MDA-MB-231, 48 h, 5 μM, cells started to die at 48 hrs) was 98.5 (9.1) %, the “mean percentage of non-invaded portion of the scratch” value (MCF7 cells [6]; MCF7, 0 h, 1 μM) was 100 (4.1) % and the “mean percentage of non-invaded portion of the scratch” value (MCF7 cells [6]; MCF7, 0 h, 2 μM) was 100 (4.8) %. The “mean percentage of non-invaded portion of the scratch” value (MCF7 cells [6]; MCF7, 0 h, 5 μM) was 100 (4.4) %, the “mean percentage of non-invaded portion of the scratch” value (MCF7 cells [6]; MCF7, 24 h, 1 μM) was 78.8 (5.2) % and the “mean percentage of non-invaded portion of the scratch” value (MCF7 cells [6]; MCF7, 24 h, 2 μM) was 79.2 (1.1) %. For the same compound, the “mean percentage of non-invaded portion of the scratch” value (MCF7 cells [6]; MCF7, 24 h, 5 μM) was 83.8 (0.6) %, the “mean percentage of non-invaded portion of the scratch” value (MCF7 cells [6]; MCF7, 48 h, 1 μM) was 61.8 (5.3) % and the “mean percentage of non-invaded portion of the scratch” value (MCF7 cells [6]; MCF7, 48 h, 2 μM) was 66.1 (1.1) %. For the same compound, the “mean percentage of non-invaded portion of the scratch” value (MCF7 cells [6]; MCF7, 48 h, 5 μM) was 78.8 (0.6) %, the “Selectivity index (IC50 non-malignant/IC50 malignant)” value ([7]; BJ vs BJ (reference)) was 1 and the IC50 ([7]; Homo sapiens, Fibroblast, BJ non malignant, 48 hours, crystal violet) was 14.3 µM. The IC50 [8] was 2000 nM, the “effect on relative tumor growth, in words” value ([9]; 4T1, 8 mg/kg) was “significantly reduces relative tumor growth” and the Relative tumor size ([9]; Day 0) was 1.0. The Relative tumor size ([9]; Day 4) was 1.3, the Relative tumor size ([9]; Day 7) was 1.1 and the Relative tumor size ([9]; Day 11) was 1.4. For the same compound, the Relative tumor size ([9]; Day 14) was 1.6 and the Relative tumor size ([9]; Day 18) was 2.5.
